Reference: patent publication US3983156A, “Substituted ω-nitroacetophenones” (Beecham Group Limited, priority 1973, dated 1976)

System: rat PCA response
Assay: Rat Passive Cutaneous Anaphylaxis (PCA) test
Assay type: in vivo, rat (Wistar)
Conditions: sc, subcutaneous
Protocol: Some of the ω-nitroacetophenones prepared in the preceding Examples were submitted for biological testing. The test system was the Rat Passive Cutaneous Anaphylaxis (PCA) test described below in (ii).
i. Serum containing heat labile homocytotropic antibody was raised in rats by a method similar to that used by Mota. (I. Mota Immunology 1964, 7, 681).
Male Wistar rats of 250-300 g, were injected intraperitoneally with 0.5 ml of Bordatella pertussis vaccine (containing 4 × 10^10 dead organism per ml) and subcutaneously with 0.5 ml of an emulsion of 100 mg. of ovalbumin in 2 ml of saline and 3 ml of incomplete Freunds' adjuvant. Rats were bled by cardiac puncture on day 18, the blood was pooled and separated and serum stored at -20° and thawed only once before use.
ii. The P.C.A. test was similar to that described by Ovary and Bier (A. Ovary and O. E. Bier, Prod. Soc. Exp. Biol. Med. 1952, 81, 584) and Goose and Blair (J. Goose and AM.J. N Blair, Immunology 1969, 16, 769)
0.1 ml of each of six twofold serial dilutions of the serum in 0.9% saline were injected intradermally into separate sites on the shaved dorsal surface of 250-350 g Wistar rats. 72 hours later the animals were challlenged by i.v. injection of 0.3 ml of 1% ovalbumin mixed with 0.1 ml of a 5% solution of pontamine sky blue dye both in isotonic saline buffered with pH. 7.2 Sorenson buffer (P.B.S.). The rats were killed after 20 minutes and the diameter of the blue wheals at the antibody injection sites were measured. The starting dilution of the serum was adjusted so that there was no response, after challenge, at the site of injection of the highest dilution and a maximum response at the two or three lowest dilutions. Typically, six twofold serial dilutions of the serum from 1/4 to 1/128 were used.
Compounds were tested for their ability to reduce the diameter of the wheals at the injection sites of dilutions of antibody which on all the controls have less than maximum response. Amounts of the compounds were administered to rats by subcutaneous injection, into the nuchal region, of a solution of the compound in P.B.S. or as a suspension in 1% methyl cellulose, each amount to a test group of six animals at a specified time prior to intravenous challenge with ovalbumin. THe diameters of the blue wheals which developed on the tests group of aimals were compared with those on a control group of six animals treated in the same way as the test group, but which; had received an equivalent subcutaneous injection of the carrier fluid not containing the same volume of the compound under test.
% Inhibition of P.C.A. = 100 (1 - a/b)
a = The mean of the sum of the diameters of the wheals produced in the test group of animals at those antibody sites where all the control group of animals gave less than maximum response.
b = The mean of the sum of diameters of the wheals produced in the control group of amimals at those antibody sites where all the animals in the group gave less than maximum response.
The preferred method of administration was a solution of the test compound dissolved in pH 7.2 buffer and neutralised with sodium bicarbonate. For those compounds having insoluble sodium salts, the salts were isolated by reaction of the free nitro compound with 2.5N sodium hydroxide and the filtered sodium salt washed free of alkali with water. The dried salts were then administered as a suspension in 1% methyl cellulose.

Work on COC(=O)c1cc(C)c(C)cc1C(=O)C[N+](=O)[O-] [Example 3, 2-methoxycarbonyl-4,5-dimethyl-ω-nitroacetophenone] yielded an inhibition in vivo at 25 mg/kg (0 mins prior to challenge) of 22%, an inhibition in vivo at 25 mg/kg (60 mins prior to challenge) of 51% and an inhibition in vivo at 100 mg/kg (0 mins prior to challenge) of 34%. For the same molecule, the inhibition in vivo at 100 mg/kg (60 mins prior to challenge) was 58%.
With O=C(O)c1ccccc1C(=O)C[N+](=O)[O-] [Example 8, ω-nitroacetophenone-2-carboxylic acid] the inhibition in vivo at 25 mg/kg (0 mins prior to challenge) was 12%, the inhibition in vivo at 25 mg/kg (30 mins prior to challenge) was 18% and the inhibition in vivo at 100 mg/kg (0 mins prior to challenge) was 48%. The inhibition in vivo at 100 mg/kg (30 mins prior to challenge) was 37%.
CCCOC(=O)c1cc(C)c(C)cc1C(=O)C[N+](=O)[O-] [Example 5, 2-^n propoxycarbonyl-4,5-dimethyl-ω-nitroacetophenone] gave an inhibition in vivo at 25 mg/kg (0 mins prior to challenge) of 7%, an inhibition in vivo at 25 mg/kg (60 mins prior to challenge) of 44% and an inhibition in vivo at 100 mg/kg (0 mins prior to challenge) of 11%. The inhibition in vivo at 100 mg/kg (60 mins prior to challenge) was 54%.
Molecule COC(=O)c1ccccc1C(=O)C[N+](=O)[O-] [Example 1, 2-methoxycarbonyl-ω-nitroacetophenone] has an inhibition in vivo at 25 mg/kg (0 mins prior to challenge) of 0%, an inhibition in vivo at 25 mg/kg (60 mins prior to challenge) of 32% and an inhibition in vivo at 100 mg/kg (0 mins prior to challenge) of 12%. For the same molecule, the inhibition in vivo at 100 mg/kg (60 mins prior to challenge) was 23%.
In the case of Cc1cc(C(=O)O)c(C(=O)C[N+](=O)[O-])cc1C [Example 9, 4,5-dimethyl-ω-nitroacetophenone-2-carboxylic acid], the inhibition in vivo at 25 mg/kg (0 mins prior to challenge) is reported as 33%, the inhibition in vivo at 25 mg/kg (60 mins prior to challenge) is reported as 13% and the inhibition in vivo at 100 mg/kg (0 mins prior to challenge) is reported as 57%. For the same molecule, the inhibition in vivo at 100 mg/kg (60 mins prior to challenge) was 32%.
Work on CCOC(=O)c1cc(C)c(C)cc1C(=O)C[N+](=O)[O-] [Example 4, 2-ethoxycarbonyl-4,5-dimethyl-ω-nitroacetophenone] yielded an inhibition in vivo at 25 mg/kg (0 mins prior to challenge) of 12%, an inhibition in vivo at 25 mg/kg (60 mins prior to challenge) of 53% and an inhibition in vivo at 100 mg/kg (0 mins prior to challenge) of 16%. The inhibition in vivo at 100 mg/kg (60 mins prior to challenge) was 42%.
CCOC(=O)c1ccccc1C(=O)C[N+](=O)[O-] [Example 2, 2-ethoxycarbonyl-ω-nitroacetophenone] gave an inhibition in vivo at 25 mg/kg (0 mins prior to challenge) of 22%, an inhibition in vivo at 25 mg/kg (60 mins prior to challenge) of 57% and an inhibition in vivo at 100 mg/kg (0 mins prior to challenge) of 34%. It also gave an inhibition in vivo at 100 mg/kg (60 mins prior to challenge) of 58%.
Work on Cc1cc(C(=O)C[N+](=O)[O-])c(C(=O)OC(C)C)cc1C [Example 6, 2-Isopropoxycarbonyl-4,5-dimethyl-ω-nitroacetophenone] yielded an inhibition in vivo at 25 mg/kg (0 mins prior to challenge) of 16%, an inhibition in vivo at 25 mg/kg (30 mins prior to challenge) of 20% and an inhibition in vivo at 100 mg/kg (0 mins prior to challenge) of 30%. It also gave an inhibition in vivo at 100 mg/kg (30 mins prior to challenge) of 41%.
COC(=O)c1cccc(-c2ccccc2)c1C(=O)C[N+](=O)[O-] [Example 7] gave an inhibition in vivo at 25 mg/kg (0 mins prior to challenge) of 8%, an inhibition in vivo at 25 mg/kg (60 mins prior to challenge) of -13% and an inhibition in vivo at 100 mg/kg (0 mins prior to challenge) of 14%. For the same molecule, the inhibition in vivo at 100 mg/kg (60 mins prior to challenge) was -2%.
O=C(C[N+](=O)[O-])c1cccc(-c2ccccc2)c1C(=O)O [Example 10, ω-nitro-3-phenylacetophenone-2-carboxylic acid] was tested, and the inhibition in vivo at 25 mg/kg (0 mins prior to challenge) was 2%, the inhibition in vivo at 25 mg/kg (30 mins prior to challenge) was 11% and the inhibition in vivo at 84 mg/kg (0 mins prior to challenge) was 23%. It also gave an inhibition in vivo at 84 mg/kg (30 mins prior to challenge) of 21%.
